Results taken from US20060269613A1, “Composition containing nanoparticles containing water-soluble basic drug encpsulated therein” (priority 2003, published 2006).

Test: Ratio of lactone ring-closed TPT over time in 50% human plasma at 37° C. (HPLC)
Type: in vitro ADME
Conditions: 50% human plasma diluted with PBS
Protocol: Fifty μL of TPT-containing PLA particle formulation or 50 μL of aqueous TPT solution (0.3 mg/mL) containing 50 mg/mL of PEG-4000 and 50 mg/mL of mannitol was freeze-dried. This freeze-dried product (control) and the above-mentioned nanoparticles were each dissolved in 1 mL of 50% human plasma (diluted with PBS), and were incubated at 37° C. For the purpose of investigating the ratio of ring-opening of lactone ring of TPT with lapse of time, 100 μL was taken out from the incubated sample after 0 hour, 2 hours and 4 hours, and was added to 900 μL of methanol. Plasma protein was denatured while the equilibrium of TPT structure was maintained, and, then, the samples were centrifuged at 10000 rpm for 10 minutes so that protein components were precipitated, and, then, the concentration of lactone ring-opened TPT and that of lactone ring-closed TPT in supernatant were measured with HPLC. An aqueous solution of TPT (pH 3; phosphate*hydro-chloride buffer) was used for control.
(§1) Fifty μL of TPT-containing nanoparticle formulation or a 50 μL of aqueous TPT solution (0.3 mg/mL) containing 50 mg/mL of PEG-4000 and 50 mg/mL of mannitol was freeze-dried, and was dissolved in 1 mL of 50% human plasma (diluted with PBS), and were incubated at 37° C. For the purpose of investigating the ratio of ring-opening and ring-closing of lactone ring of TPT with lapse of time, 100 μL of incubated sample was taken out after 0 hour, 2 hours and 4 hours, and was added to 900 μL of methanol. Plasma protein was denatured while the equilibrium of TPT structure was maintained, and, then, the sample was centrifuged at 10000 rpm for 10 minutes so that protein components were precipitated, and, then, the concentration of lactone ring-opened TPT and that of lactone ring-closed TPT in supernatant were measured with HPLC. An aqueous solution of TPT (pH 3; phosphate*hydrochloride buffer) was used for control.
as §1, with “TPT-containing micellar” for “TPT-containing”, “or” for “or a”, “ring-closing” for “ring-closing of lactone ring”, “HPLC.” for “HPLC. An aqueous solution of TPT (pH 3; phosphate*hydrochloride buffer) was used for control.”
as §1, with “nanocapsule particle” for “nanoparticle”, “its freeze-dried product” for “a 50 μL of aqueous TPT solution (0.3 mg/mL) containing 50 mg/mL of PEG-4000 and 50 mg/mL of mannitol was freeze-dried, and”, “ring-closing” for “ring-closing of lactone ring”, “HPLC.” for “HPLC. An aqueous solution of TPT (pH 3; phosphate*hydrochloride buffer) was used for control.”

- ratio of ring-closed TPT in 50% human plasma, 0 Hour (Table 1 (Example 1)): 97.5%
- ratio of ring-closed TPT in 50% human plasma, 2 Hours (Table 1 (Example 1)): 24.6%
- ratio of ring-closed TPT in 50% human plasma, 4 Hours (Table 1 (Example 1)): 19.4%
- ratio of ring-closed TPT in 50% human plasma, 0 Hour (Table 2 (Example 2)): 98.8%
- ratio of ring-closed TPT in 50% human plasma, 2 Hours (Table 2 (Example 2)): 20.8%
- ratio of ring-closed TPT in 50% human plasma, 4 Hours (Table 2 (Example 2)): 13.4%
- ratio of ring-closed TPT in 50% human plasma, 0 Hour (Table 3 (Example 3)): 98.9%
- ratio of ring-closed TPT in 50% human plasma, 2 Hours (Table 3 (Example 3)): 18.6%
- ratio of ring-closed TPT in 50% human plasma, 4 Hours (Table 3 (Example 3)): 14.6%
- ratio of ring-closed TPT in 50% human plasma, 0 Hour (Table 4 (Example 5)): 98.2%
- ratio of ring-closed TPT in 50% human plasma, 2 Hours (Table 4 (Example 5)): 14.4%
- ratio of ring-closed TPT in 50% human plasma, 4 Hours (Table 4 (Example 5)): 11.9%
Structure (SMILES): CC[C@@]1(O)C(=O)OCc2c1cc1n(c2=O)Cc2cc3c(CN(C)C)c(O)ccc3nc2-1 [Control]
